Here are results for four cell lines from the supplement of paper PMC10307832.

Holding throughout (test): relative viability (nuclei count vs DMSO), 5 days (fraction); higher = more cells survive
Compound in test [1]: CN(c1ncccc1CNc1nc(Nc2ccc3c(c2)CC(=O)N3)ncc1C(F)(F)F)S(C)(=O)=O + CC(=O)Nc1cccc(-n2c(=O)n(C3CC3)c(=O)c3c(Nc4ccc(I)cc4F)n(C)c(=O)c(C)c32)c1 [Trametinib] (partner 0.02 µM)
An outline of the steps: (§1)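 Each reported value is a median over duplicate plates. It expresses relative viability: treated-well nuclei count divided by vehicle-well nuclei count. Lung cancer cell lines in 1536-well plates were dosed by pin tool a day after seeding, alone with one drug or with a fixed anchor-drug dose plus five library-drug doses (not always all listed) in √10 steps, and nuclei were counted after 5 days.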

Compound in test [2]: CN(c1ncccc1CNc1nc(Nc2ccc3c(c2)CC(=O)N3)ncc1C(F)(F)F)S(C)(=O)=O + CC1(C)CCC(c2ccc(Cl)cc2)=C(CN2CCN(c3ccc(C(=O)NS(=O)(=O)c4ccc(N[C@H](CCN5CCOCC5)CSc5ccccc5)c(S(=O)(=O)C(F)(F)F)c4)cc3)CC2)C1 [Navitoclax] (partner 0.5 µM)
An outline of the steps: as §1

Compound in test [3]: CN(c1ncccc1CNc1nc(Nc2ccc3c(c2)CC(=O)N3)ncc1C(F)(F)F)S(C)(=O)=O + N=C(N)NC(=N)NCCc1ccccc1 [Phenformin] (partner 250 µM)
The method, boiled down: as §1

Compound in test [4]: CN(c1ncccc1CNc1nc(Nc2ccc3c(c2)CC(=O)N3)ncc1C(F)(F)F)S(C)(=O)=O + Nc1nc2[nH]cc(CCc3ccc(C(=O)N[C@@H](CCC(=O)O)C(=O)O)cc3)c2c(=O)[nH]1 [Pemetrexed] (partner 0.2 µM)
An outline of the steps: as §1

As for NCI-H1944, the relative viability in test [1] (first compound 0.01 µM) came out at 0.412; in test [1] (first compound 0.03162 µM), 0.45; in test [1] (first compound 0.1 µM) it was 0.39; in test [1] (first compound 0.3162 µM), 0.449; in test [1] (first compound 1 µM), 0.412; in test [2] (first compound 0.01 µM) it was 0.984. In addition, the relative viability was 1.06 in test [2] (first compound 0.03162 µM); 1.11 in test [2] (first compound 0.1 µM); 1 in test [2] (first compound 0.3162 µM); 1.11 in test [2] (first compound 1 µM); 0.22 in test [3] (first compound 0.01 µM); 0.201 in test [3] (first compound 0.03162 µM). Besides, the relative viability stood at 0.193 in test [3] (first compound 0.1 µM); 0.19 in test [3] (first compound 0.3162 µM); 0.216 in test [3] (first compound 1 µM); 0.642 in test [4] (first compound 0.01 µM); 0.612 in test [4] (first compound 0.03162 µM); 0.646 in test [4] (first compound 0.1 µM). For the same cell line, the relative viability in test [4] (first compound 0.3162 µM) is 0.592; in test [4] (first compound 1 µM), 0.613.
Take HCC-78: the relative viability turned out to be 0.681 in test [1] (first compound 0.01 µM); 0.864 in test [1] (first compound 0.03162 µM); 0.753 in test [1] (first compound 0.1 µM); 0.641 in test [1] (first compound 0.3162 µM); 0.507 in test [1] (first compound 1 µM); 0.81 in test [2] (first compound 0.01 µM). Also, the relative viability in test [2] (first compound 0.03162 µM) worked out at 0.845; in test [2] (first compound 0.1 µM), 0.73; in test [2] (first compound 0.3162 µM), 0.632; in test [2] (first compound 1 µM), 0.674; in test [3] (first compound 0.01 µM), 0.67; in test [3] (first compound 0.03162 µM), 0.662. In addition, the relative viability in test [3] (first compound 0.1 µM) stood at 0.563; in test [3] (first compound 0.3162 µM), 0.566; in test [3] (first compound 1 µM) it was 0.573; in test [4] (first compound 0.01 µM) it was 0.907; in test [4] (first compound 0.03162 µM) it was 0.922; in test [4] (first compound 0.1 µM), 0.921. Besides, the relative viability in test [4] (first compound 0.3162 µM) was determined as 0.922; in test [4] (first compound 1 µM), 0.929.
With NCI-H2405, the relative viability in test [1] (first compound 0.01 µM) stood at 0.633; in test [1] (first compound 0.03162 µM), 0.676; in test [1] (first compound 0.1 µM) it was 0.596; in test [1] (first compound 0.3162 µM) it was 0.596; in test [1] (first compound 1 µM), 0.584; in test [2] (first compound 0.01 µM), 0.802. In addition, the relative viability in test [2] (first compound 0.03162 µM) worked out at 0.993; in test [2] (first compound 0.1 µM), 0.66; in test [2] (first compound 0.3162 µM), 0.705; in test [2] (first compound 1 µM) it was 0.679; in test [3] (first compound 0.01 µM) it was 0.402; in test [3] (first compound 0.03162 µM) it was 0.376. Moreover, the relative viability amounted to 0.385 in test [3] (first compound 0.1 µM); 0.248 in test [3] (first compound 0.3162 µM); 0.392 in test [3] (first compound 1 µM); 1.06 in test [4] (first compound 0.01 µM); 1.01 in test [4] (first compound 0.03162 µM); 0.984 in test [4] (first compound 0.1 µM). In addition, the relative viability in test [4] (first compound 0.3162 µM) was found to be 0.924; in test [4] (first compound 1 µM), 0.832.
SK-LU-1: the relative viability was 0.479 in test [1] (first compound 0.01 µM); 0.556 in test [1] (first compound 0.03162 µM); 0.489 in test [1] (first compound 0.1 µM); 0.449 in test [1] (first compound 0.3162 µM); 0.45 in test [1] (first compound 1 µM); 0.878 in test [2] (first compound 0.01 µM). Also, the relative viability in test [2] (first compound 0.03162 µM) is 0.841; in test [2] (first compound 0.1 µM) it was 0.735; in test [2] (first compound 0.3162 µM) it was 0.766; in test [2] (first compound 1 µM), 0.768; in test [3] (first compound 0.01 µM), 0.579; in test [3] (first compound 0.03162 µM) it was 0.597. Also, the relative viability worked out at 0.453 in test [3] (first compound 0.1 µM); 0.472 in test [3] (first compound 0.3162 µM); 0.371 in test [3] (first compound 1 µM); 1.04 in test [4] (first compound 0.01 µM); 0.903 in test [4] (first compound 0.03162 µM); 0.954 in test [4] (first compound 0.1 µM). Also, the relative viability in test [4] (first compound 0.3162 µM) turned out to be 1; in test [4] (first compound 1 µM), 0.88.
